Test results published in patent US10428017B2, “Modulators of the cystic fibrosis transmembrane conductance regulator protein and methods of use” (AbbVie S.à.r.l., priority 2017, dated 2019).
Read-outs that look alike come from different tables or passages of the source.

Target: T1, F508delCFTR (Homo sapiens, UniProt P13569, DEL508-508)
T1 construct: expressed in transfected cells; host or cells: CFBE4lo-F508delCFTR-HRP cells (human lung derived epithelial cell line, doxycycline-inducible)
Experiment: Cell Surface Expression-Horse Radish Peroxidase (CSE-HRP) Assay
Format: cell-based
Conditions: for EC50: CFBE4lo-F508delCFTR-HRP cells, 18-24 hours at 33° C.; for Emax / Maximum % activity (with co-corrector): maximum at any tested concentration (up to 20 μM), normalized to on-plate positive control (2 μM co-corrector); for Maximum % activity (with co-corrector): with co-corrector 2 μM
Summary of the method: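 CFBE4lo− cells expressing F508delCFTR with HRP in the fourth exofacial loop, induced 72 h with 0.5 μg/mL doxycycline, then treated 18-24 h at 33° C, alone or with 2 μM co-corrector (8 points, 3-fold, top 20 μM). Luminol luminescence after washing; % activity normalized to DMSO and 2 μM positive control; sigmoidal EC50 from triplicate plates.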

[1] = test compound without co-corrector, HRP luminescence readout, read-out: EC50 (without co-corrector)
[2] = test compound without co-corrector
[3] = with co-corrector 2 μM 3-[(2R,4R)-4-({[1-(2,2-difluoro-1,3-benzodioxol-5-yl)cyclopropyl]carbonyl}amino)-7-methoxy-3,4-dihydro-2H-chromen-2-yl]benzoic acid, read-out: EC50 (with co-corrector)

T1 sequence (P13569 with tags, fused parts or gaps DEL508-508): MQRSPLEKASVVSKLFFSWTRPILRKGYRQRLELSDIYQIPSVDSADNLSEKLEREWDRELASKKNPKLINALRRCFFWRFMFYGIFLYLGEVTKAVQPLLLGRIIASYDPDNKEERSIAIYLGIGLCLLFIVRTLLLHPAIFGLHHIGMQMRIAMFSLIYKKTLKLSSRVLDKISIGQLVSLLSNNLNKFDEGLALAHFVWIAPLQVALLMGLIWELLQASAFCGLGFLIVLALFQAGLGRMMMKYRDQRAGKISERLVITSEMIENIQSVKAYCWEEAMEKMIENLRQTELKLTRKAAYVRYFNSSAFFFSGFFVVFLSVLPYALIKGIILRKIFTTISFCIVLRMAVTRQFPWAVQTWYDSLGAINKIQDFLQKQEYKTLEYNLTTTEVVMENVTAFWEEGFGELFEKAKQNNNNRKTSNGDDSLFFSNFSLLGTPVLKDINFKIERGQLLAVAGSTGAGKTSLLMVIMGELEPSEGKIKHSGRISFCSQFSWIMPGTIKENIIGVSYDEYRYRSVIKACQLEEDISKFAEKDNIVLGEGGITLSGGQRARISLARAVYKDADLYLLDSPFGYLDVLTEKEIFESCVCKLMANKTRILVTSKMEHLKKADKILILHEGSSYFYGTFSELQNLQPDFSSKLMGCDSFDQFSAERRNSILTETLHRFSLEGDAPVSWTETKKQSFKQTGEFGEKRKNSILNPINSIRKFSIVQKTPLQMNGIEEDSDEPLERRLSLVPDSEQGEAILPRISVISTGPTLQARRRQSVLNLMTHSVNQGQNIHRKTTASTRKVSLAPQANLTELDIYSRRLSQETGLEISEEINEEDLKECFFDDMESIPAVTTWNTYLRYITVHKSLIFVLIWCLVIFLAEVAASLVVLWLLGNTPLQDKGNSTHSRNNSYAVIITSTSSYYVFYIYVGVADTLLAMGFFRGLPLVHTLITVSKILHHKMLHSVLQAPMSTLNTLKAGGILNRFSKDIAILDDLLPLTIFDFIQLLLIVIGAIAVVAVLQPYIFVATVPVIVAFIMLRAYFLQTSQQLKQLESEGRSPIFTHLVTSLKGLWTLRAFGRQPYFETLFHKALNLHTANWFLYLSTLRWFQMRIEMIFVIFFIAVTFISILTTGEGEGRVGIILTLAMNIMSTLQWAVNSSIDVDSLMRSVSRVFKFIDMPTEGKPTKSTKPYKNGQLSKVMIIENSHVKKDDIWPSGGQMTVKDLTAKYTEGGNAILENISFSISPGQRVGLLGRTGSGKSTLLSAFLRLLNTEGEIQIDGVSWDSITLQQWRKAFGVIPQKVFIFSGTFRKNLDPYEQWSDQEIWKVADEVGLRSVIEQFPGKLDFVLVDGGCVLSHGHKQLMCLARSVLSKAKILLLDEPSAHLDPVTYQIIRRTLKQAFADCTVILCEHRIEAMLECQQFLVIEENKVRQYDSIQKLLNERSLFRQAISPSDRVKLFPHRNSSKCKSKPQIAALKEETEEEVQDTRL

| SMILES | EC50 [1] | Emax [2] | EC50 [3] | Maximum % activity (with co-corrector) |
| --- | --- | --- | --- | --- |
| Cc1ccccc1S(=O)(=O)NC(=O)C1COc2ccc(Cl)cc21 (centres unmarked) [Example 27, 5-chloro-N-(2-methylbenzene-1-sulfonyl)-2,3-dihydro-1-benzofuran-3-carboxamide] | ≥ 10 µM | < 50% | ≥ 10 µM | + (<150) |
| CCC1(C(=O)NS(=O)(=O)c2cccc3ccccc23)COc2c(Cl)cccc21 (centres unmarked) [Example 44, 7-chloro-3-ethyl-N-(naphthalene-1-sulfonyl)-2,3-dihydro-1-benzofuran-3-carboxamide] | 3 to 10 µM | 50 to 150% | 3 to 10 µM | +++ (≥350) |
| C[C@]1(C(=O)NS(=O)(=O)c2cccc3ccccc23)COc2cc3c(cc21)OC(F)(F)O3 [Example 33, (7R)-2,2-difluoro-7-methyl-N-(naphthalene-1-sulfonyl)-6,7-dihydro-2H-furo[2,3-f][1,3]benzodioxole-7-carboxamide] | ≥ 10 µM | < 50% | ≥ 10 µM | ++ (≥150 and <350) |
| COc1cccc2c1C(C(=O)NS(=O)(=O)c1cccc3ccccc13)CC(C)(C)O2 (centres unmarked) [Example 49, 5-methoxy-2,2-dimethyl-N-(naphthalene-1-sulfonyl)-3,4-dihydro-2H-1-benzopyran-4-carboxamide] | 3 to 10 µM | ≥ 150% | < 3 µM | +++ (≥350) |
| COc1ccc(C2CCC2)c2c1C(C(=O)NS(=O)(=O)c1cccn3nccc13)CO2 (centres unmarked) [Example 88, 7-cyclobutyl-4-methoxy-N-(pyrazolo[1,5-a]pyridine-4-sulfonyl)-2,3-dihydro-1-benzofuran-3-carboxamide] | 3 to 10 µM | ≥ 150% | < 3 µM | +++ (≥350) |
| COc1ccc(C2CCC2)c2c1OCCC2C(=O)NS(=O)(=O)c1cccc2ncccc12 (centres unmarked) [Example 105, 5-cyclobutyl-8-methoxy-N-(quinoline-5-sulfonyl)-3,4-dihydro-2H-1-benzopyran-4-carboxamide] | 3 to 10 µM | ≥ 150% | < 3 µM | +++ (≥350) |
| CCC1(C(=O)NS(=O)(=O)c2cccc3ccccc23)COc2cccc(OC)c21 (centres unmarked) [Example 8, 3-ethyl-4-methoxy-N-(naphthalene-1-sulfonyl)-2,3-dihydro-1-benzofuran-3-carboxamide] | 3 to 10 µM | ≥ 150% | < 3 µM | +++ (≥350) |
| Cc1ccccc1S(=O)(=O)NC(=O)C1(C)Cc2ccccc2O1 (centres unmarked) [Example 16, 2-methyl-N-(2-methylbenzene-1-sulfonyl)-2,3-dihydro-1-benzofuran-2-carboxamide] | ≥ 10 µM | < 50% | ≥ 10 µM | + (<150) |
| COc1cccc2c1OCC2C(=O)NS(=O)(=O)c1cccc2ccccc12 (centres unmarked) [Example 25, 7-methoxy-N-(naphthalene-1-sulfonyl)-2,3-dihydro-1-benzofuran-3-carboxamide] | 3 to 10 µM | < 50% | 3 to 10 µM | ++ (≥150 and <350) |
| CC(C)c1ccc(S(=O)(=O)NC(=O)C2(C)Cc3ccccc3O2)cc1 (centres unmarked) [Example 26, 2-methyl-N-[4-(propan-2-yl)benzene-1-sulfonyl]-2,3-dihydro-1-benzofuran-2-carboxamide] | ≥ 10 µM | < 50% | ≥ 10 µM | + (<150) |
| COc1ccc(C2CCC2)c2c1OCC[C@@H]2C(=O)NS(=O)(=O)c1cccc2ncccc12 (single isomer, unassigned) [Example 107] | 3 to 10 µM | < 50% | 3 to 10 µM | ++ (≥150 and <350) |
| COc1ccc(C2CCC2)c2c1[C@@H](C(=O)NS(=O)(=O)c1cccc3[nH]ccc13)CCO2 [Example 103, (4S)-8-cyclobutyl-N-(1H-indole-4-sulfonyl)-5-methoxy-3,4-dihydro-2H-1-benzopyran-4-carboxamide] | 3 to 10 µM | ≥ 150% | < 3 µM | +++ (≥350) |
| O=C(NS(=O)(=O)c1cccc2ccccc12)C1COc2c1cccc2C(F)(F)F (centres unmarked) [Example 45, N-(naphthalene-1-sulfonyl)-7-(trifluoromethyl)-2,3-dihydro-1-benzofuran-3-carboxamide] | 3 to 10 µM | 50 to 150% | 3 to 10 µM | ++ (≥150 and <350) |
| COc1ccc(C2CCC2)c2c1C(C(=O)NS(=O)(=O)c1cccc3ncccc13)CCO2 (centres unmarked) [Example 54, 8-cyclobutyl-5-methoxy-N-(quinoline-5-sulfonyl)-3,4-dihydro-2H-1-benzopyran-4-carboxamide] | 3 to 10 µM | ≥ 150% | < 3 µM | +++ (≥350) |
| COc1ccc(C2CCC2)c2c1C(C(=O)NS(=O)(=O)c1cccc3ccccc13)CCO2 (centres unmarked) [Example 13, 8-cyclobutyl-5-methoxy-N-(naphthalene-1-sulfonyl)-3,4-dihydro-2H-1-benzopyran-4-carboxamide] | < 3 µM | ≥ 150% | < 3 µM | +++ (≥350) |
| COc1cccc2c1C(C(=O)NS(=O)(=O)c1cccc3cccnc13)CC(C)(C)O2 (centres unmarked) [Example 47, 5-methoxy-2,2-dimethyl-N-(quinoline-8-sulfonyl)-3,4-dihydro-2H-1-benzopyran-4-carboxamide] | 3 to 10 µM | < 50% | 3 to 10 µM | ++ (≥150 and <350) |
| COc1ccc(OC)c2c1OCC2C(=O)NS(=O)(=O)c1cccc2ccccc12 (centres unmarked) [Example 62, 4,7-dimethoxy-N-(naphthalene-1-sulfonyl)-2,3-dihydro-1-benzofuran-3-carboxamide] | 3 to 10 µM | ≥ 150% | 3 to 10 µM | +++ (≥350) |

Other lines, results leading:

| EC50 [1] | Emax [2] | EC50 [3] | Maximum % activity (with co-corrector) | SMILES |
| --- | --- | --- | --- | --- |
| < 3 µM | ≥ 150% | < 3 µM | +++ (≥350) | COc1ccc(Br)c2c1C(C(=O)NS(=O)(=O)c1cccc3ccccc13)CC(C)(C)O2 (centres unmarked) [Example 52, 8-bromo-5-methoxy-2,2-dimethyl-N-(naphthalene-1-sulfonyl)-3,4-dihydro-2H-1-benzopyran-4-carboxamide] |
| < 3 µM | ≥ 150% | < 3 µM | +++ (≥350) | COc1ccc(C2CCC2)c2c1C(C(=O)NS(=O)(=O)c1cccc3c1CCCN3)CCO2 (centres unmarked) [Example 85, 8-cyclobutyl-5-methoxy-N-(1,2,3,4-tetrahydroquinoline-5-sulfonyl)-3,4-dihydro-2H-1-benzopyran-4-carboxamide] |
| < 3 µM | ≥ 150% | < 3 µM | +++ (≥350) | COc1ccc(C2CCC2)c2c1C(C(=O)NS(=O)(=O)c1cccc3ncccc13)CO2 (centres unmarked) [Example 80, 7-cyclobutyl-4-methoxy-N-(quinoline-5-sulfonyl)-2,3-dihydro-1-benzofuran-3-carboxamide] |
| < 3 µM | ≥ 150% | < 3 µM | +++ (≥350) | COc1ccc(C2CCC2)c2c1[C@H](C(=O)NS(=O)(=O)c1cccc3ncccc13)CCO2 [Example 60, (4R)-8-cyclobutyl-5-methoxy-N-(quinoline-5-sulfonyl)-3,4-dihydro-2H-1-benzopyran-4-carboxamide] |
| < 3 µM | ≥ 150% | < 3 µM | +++ (≥350) | COc1ccc(Br)c2c1[C@H](C(=O)NS(=O)(=O)c1cccc3ccccc13)CCO2 [Example 36, (4R)-8-bromo-5-methoxy-N-(naphthalene-1-sulfonyl)-3,4-dihydro-2H-1-benzopyran-4-carboxamide] |
| < 3 µM | ≥ 150% | < 3 µM | +++ (≥350) | COc1ccc(Br)c2c1C(C(=O)NS(=O)(=O)c1cccc3ccccc13)OCC2 (centres unmarked) [Example 78, 5-bromo-8-methoxy-N-(naphthalene-1-sulfonyl)-3,4-dihydro-1H-2-benzopyran-1-carboxamide] |
| < 3 µM | < 50% | < 3 µM | ++ (≥150 and <350) | CCC1(C(=O)NS(=O)(=O)c2cccc3ccccc23)COc2ccccc21 (centres unmarked) [Example 23, 3-ethyl-N-(naphthalene-1-sulfonyl)-2,3-dihydro-1-benzofuran-3-carboxamide] |
| < 3 µM | ≥ 150% | < 3 µM | +++ (≥350) | CCC1(C(=O)NS(=O)(=O)c2cccc3ccccc23)CCOc2cccc(OC)c21 (centres unmarked) [Example 10, 4-ethyl-5-methoxy-N-(naphthalene-1-sulfonyl)-3,4-dihydro-2H-1-benzopyran-4-carboxamide] |
| < 3 µM | ≥ 150% | < 3 µM | +++ (≥350) | COc1ccc(Br)c2c1C(C(=O)NS(=O)(=O)c1cccc3ccccc13)CO2 (centres unmarked) [Example 39, 7-bromo-4-methoxy-N-(naphthalene-1-sulfonyl)-2,3-dihydro-1-benzofuran-3-carboxamide] |
